Source: patent US4118424A, “Biodegradable insecticides” (priority 1976, dated 1978)
Converted amounts (≈) assume the structure as drawn.

Legend:
[1] = test system: houseflies, susceptible strain (SNAIDM); assay: Insecticidal activity, housefly, susceptible strain (SNAIDM), Table I; type: in vivo; conditions: for SNAIDM alone (insecticidal activity; head is a drawing): compound alone; for SNAIDM with P.B. (insecticidal activity; head is a drawing): with piperonyl butoxide synergist
From the text: (§1) Metabolic studies involving insects, mice, and fish and a model ecosystem (such as described in U.S. Pat. No. 3,787,505) and insecticidal activity studies generally involving flies and mosquitoes have shown that both the symmetrical and the asymmetrical compounds of the present invention are effective. Thus, the new compounds can be represented by the general formula: [drawing 3] where R1 is H or Cl and R2 is CH3 or Cl, X and X^1 are the same or different and each is selected from the group consisting of C1 to C3 alkyl groups and C1 to C4 alkoxy groups.
(§2) In addition, DCP was tested for mouse toxicity, fish toxicity and biodegradibility.

[2] = test system: houseflies, DDT resistant strain (RSP); assay: Insecticidal activity, housefly, resistant strain (RSP), Table I; type: in vivo; conditions: for RSP alone (insecticidal activity; head is a drawing): compound alone; for RSP with P.B. (insecticidal activity; head is a drawing): with piperonyl butoxide synergist
From the text: as §1, §2

mice [3] = assay: Mouse toxicity, oral, Table I; type: in vivo; conditions: for mouse toxicity (head is a drawing): oral administration
Experimental: as §2

fish = assay: Fish toxicity, Table I; type: in vivo
Experimental: as §2

[4] = Biodegradability studies, general statement
From the text: as §1, §2

[5] = test system: Musca domestica (NAIDM strain); assay: Insect toxicity, Musca domestica NAIDM strain; type: in vivo; conditions: for LD50: Musca domestica, without PB; for Musca domestica NAIDM (w/PB) LD50: with PB
[6] = test system: Musca domestica Rsp strain; assay: Insect toxicity, Musca domestica Rsp strain, DDT-resistant; type: in vivo; conditions: for LD50: Musca domestica, without PB; for Musca domestica Rsp strain w/PB LD50: with PB
Culex fatigans larvae = assay: Insect toxicity, Culex fatigans larvae; type: in vivo; conditions: Culex quinquefasciatus
Culex fatigans adults = assay: Insect toxicity, Culex fatigans adults; type: in vivo
[7] = test system: Anopheles albimanus larvae; assay: Insect toxicity, Anopheles albimanus larvae; type: in vivo
[8] = test system: Anopheles albimanus adults; assay: Insect toxicity, Anopheles albimanus adults; type: in vivo
Phormia regina = assay: Insect toxicity, Phormia regina; type: in vivo
Anopheles albimanus = assay: Persistence on plywood surfaces of test huts, Anopheles albimanus; type: in vivo; conditions: adult mosquitoes
Experimental: (§3) The persistence of some of the compounds of the present invention was evaluated and compared with that of ethoxychlor. In these tests, the compounds were applied to the plywood surfaces of test huts and the mortalities of adult mosquitoes contained in the huts were measured to determine the number of weeks that 50% mortality continued to occur.

Culex fatigans = assay: Persistence on plywood surfaces of test huts, Culex fatigans; type: in vivo; conditions: adult mosquitoes
Experimental: as §3

[9] = test system: green sunfish (Lepomis cyanellus); assay: Green sunfish toxicity over a period of time; type: in vivo; conditions: initial concentration 0.1 ppm
From the text: The compounds of Example III, V, XI, XIV and XXI were further tested and compared with ethoxychlor to determine fish toxicities over a period of time. In these tests, green sunfish (Lepomis cyanellus) were subject to an initial concentration dosage of 0.1 ppm and the number of days that 100 percent mortalities occurred was observed.

Mouse toxicity, LD50 = type: in vivo, mice; conditions: in vivo
mice [10] = assay: Mouse toxicity, LD50; type: in vivo; conditions: versus ethoxychlor
[11] = test system: insects (flies and mosquitoes); assay: Insecticidal activity, general statement; type: in vivo; conditions: versus ethoxychlor
From the text: as §1

## COc1ccc(C(c2ccc(OC)cc2)C(C)Cl)cc1 (stereo not shown) [DCP, 1,1-bis(p-methoxyphenyl)-2-chloropropane]
[1]; alone
  toxicity to susceptible strain of houseflies, alone (in words): not as toxic as DDT or methoxychlor
[1]
  SNAIDM alone (insecticidal activity; head is a drawing): 935
  SNAIDM with P.B. (insecticidal activity; head is a drawing): 3.5
[1]; with P.B.
  toxicity to susceptible strain of houseflies with piperonyl butoxide (in words): at least as toxic as methoxychlor and considerably more toxic than DDT
[2]; DDT resistant strain, alone
  toxicity to DDT resistant strain of houseflies, alone (in words): not as toxic as DDT or methoxychlor
[2]; resistant strain
  RSP alone (insecticidal activity; head is a drawing): > 500
  RSP with P.B. (insecticidal activity; head is a drawing): 4.1
[2]; resistant strain, with P.B.
  toxicity to resistant strain of houseflies with piperonyl butoxide (in words): at least as toxic as methoxychlor and considerably more toxic than DDT
Mice [3]
  mouse toxicity (head is a drawing): > 1000
Mice [3]; oral administrations to mice
  mouse toxicity (in words): considerably less toxic than DDT and comparable to methoxychlor
fish
  fish toxicity (head is a drawing): > 3
  fish toxicity (in words): less toxic than either DDT or methoxychlor
[4]
  biodegradability (in words): more biodegradable than methoxychlor

## Clc1ccc(C(c2ccc(Cl)cc2)C(Cl)(Cl)Cl)cc1 [DDT, 1,1,1-trichloro-2,2-bis(p-chlorophenyl) ethane, reference compound]
[1]
  SNAIDM alone (insecticidal activity; head is a drawing): 14.0
  SNAIDM with P.B. (insecticidal activity; head is a drawing): 5.5
[2]; resistant strain
  RSP alone (insecticidal activity; head is a drawing): 270
  RSP with P.B. (insecticidal activity; head is a drawing): 70
Mice [3]
  mouse toxicity (head is a drawing): 200
fish
  fish toxicity (head is a drawing): 0.30

## CCOc1ccc(C(c2ccc(C)cc2)C(C)Cl)cc1 (stereo not shown) [Example III]
[5]
  LD50: 39 mg/kg
  Musca domestica NAIDM (w/PB) LD50: 10 µg/g
[6]
  LD50: 95 mg/kg
  Musca domestica Rsp strain w/PB LD50: 14 µg/g
Culex fatigans larvae
  LC50: 0.08 µg/mL (≈ 0.277 µM)
Culex fatigans adults
  Culex fatigans adults-LC50: 10 ug/cm^2
[7]
  LC50: 0.09 µg/mL (≈ 0.312 µM)
[8]
  Anopheles albimanus adults LC50: 1.1 ug/cm^2
Phormia regina
  LD50: 6.75 mg/kg
Anopheles albimanus
  Anopheles albimanus, P50 (number of weeks that at least 50% mortality occurred): > 6 weeks
Culex fatigans
  Culex fatigans, P50 (number of weeks that at least 50% mortality occurred): > 8 weeks
[9]
  Number of days 100% mortality: 0 days
Mouse toxicity, LD50
  LD50: ≥ 1000 mg/kg
Mice [10]
  safety to mice relative to ethoxychlor: at least five times safer to mice than is ethoxychlor
[11]
  insecticidal activity relative to ethoxychlor: at least generally comparable to ethoxychlor

## CCOc1ccc(C(c2ccc(OCC)cc2)C(C)(Cl)Cl)cc1 [Example XIX]
[5]
  LD50: 17.5 mg/kg
  Musca domestica NAIDM (w/PB) LD50: 7 µg/g
[6]
  LD50: 90 mg/kg
  Musca domestica Rsp strain w/PB LD50: 23.5 µg/g
Culex fatigans larvae
  LC50: 0.094 µg/mL (≈ 0.266 µM)
Culex fatigans adults
  Culex fatigans adults-LC50: > 160 ug/cm^2
[7]
  LC50: 0.041 µg/mL (≈ 0.116 µM)
[8]
  Anopheles albimanus adults LC50: 49 ug/cm^2
Phormia regina
  LD50: 24 mg/kg
Anopheles albimanus
  Anopheles albimanus, P50 (number of weeks that at least 50% mortality occurred): > 20 weeks
Culex fatigans
  Culex fatigans, P50 (number of weeks that at least 50% mortality occurred): 40 weeks
Mouse toxicity, LD50
  LD50: < 300 mg/kg

## CCOc1ccc(C(c2ccc(OCC)cc2)C(C)C)cc1 [Example XI]
[5]
  LD50: 21.5 mg/kg
  Musca domestica NAIDM (w/PB) LD50: 3.5 µg/g
[6]
  LD50: 38 mg/kg
  Musca domestica Rsp strain w/PB LD50: 12.5 µg/g
Culex fatigans larvae
  LC50: 0.08 µg/mL (≈ 0.268 µM)
Culex fatigans adults
  Culex fatigans adults-LC50: 14.3 ug/cm^2
[7]
  LC50: 0.028 µg/mL (≈ 0.0938 µM)
[8]
  Anopheles albimanus adults LC50: 4.5 ug/cm^2
Phormia regina
  LD50: 14.5 mg/kg
Anopheles albimanus
  Anopheles albimanus, P50 (number of weeks that at least 50% mortality occurred): > 44 weeks
Culex fatigans
  Culex fatigans, P50 (number of weeks that at least 50% mortality occurred): 40 weeks
[9]
  Number of days 100% mortality: > 35 days
Mouse toxicity, LD50
  LD50: ≥ 1000 mg/kg
Mice [10]
  safety to mice relative to ethoxychlor: at least five times safer to mice than is ethoxychlor
[11]
  insecticidal activity relative to ethoxychlor: at least generally comparable to ethoxychlor

## COc1ccc(C(c2ccc(OC)cc2)C(Cl)(Cl)Cl)cc1 [Methoxychlor, reference compound]
[1]
  SNAIDM alone (insecticidal activity; head is a drawing): 45.0
  SNAIDM with P.B. (insecticidal activity; head is a drawing): 3.5
[2]; resistant strain
  RSP alone (insecticidal activity; head is a drawing): 48
  RSP with P.B. (insecticidal activity; head is a drawing): 4.6
fish
  fish toxicity (head is a drawing): 1

## CCOc1ccc(C(c2ccc(OCC)cc2)C(C)Cl)cc1 (stereo not shown) [V]
[5]
  LD50: 9.5 mg/kg
  Musca domestica NAIDM (w/PB) LD50: 2 µg/g
[6]
  LD50: 18 mg/kg
  Musca domestica Rsp strain w/PB LD50: 4.9 µg/g
Culex fatigans larvae
  LC50: 0.054 µg/mL (≈ 0.169 µM)
Culex fatigans adults
  Culex fatigans adults-LC50: 56 ug/cm^2
[7]
  LC50: 0.047 µg/mL (≈ 0.147 µM)
[8]
  Anopheles albimanus adults LC50: 7.9 ug/cm^2
Phormia regina
  LD50: 4.62 mg/kg
Anopheles albimanus
  Anopheles albimanus, P50 (number of weeks that at least 50% mortality occurred): > 80 weeks
Culex fatigans
  Culex fatigans, P50 (number of weeks that at least 50% mortality occurred): > 70 weeks
[9]
  Number of days 100% mortality: 4 days
Mouse toxicity, LD50
  LD50: ≥ 1000 mg/kg
Mice [10]
  safety to mice relative to ethoxychlor: at least five times safer to mice than is ethoxychlor
[11]
  insecticidal activity relative to ethoxychlor: at least generally comparable to ethoxychlor

## CCCOc1ccc(C(c2ccc(OCC)cc2)C(C)C)cc1 (stereo not shown) [XII]
[5]
  LD50: 21 mg/kg
  Musca domestica NAIDM (w/PB) LD50: 6.5 µg/g
[6]
  LD50: 42 mg/kg
  Musca domestica Rsp strain w/PB LD50: 22.5 µg/g
Culex fatigans larvae
  LC50: 0.39 µg/mL (≈ 1.25 µM)
Culex fatigans adults
  Culex fatigans adults-LC50: > 160 ug/cm^2
[7]
  LC50: 0.056 µg/mL (≈ 0.179 µM)
[8]
  Anopheles albimanus adults LC50: 35 ug/cm^2
Phormia regina
  LD50: 60 mg/kg
Mouse toxicity, LD50
  LD50: ≥ 1000 mg/kg
Mice [10]
  safety to mice relative to ethoxychlor: at least five times safer to mice than is ethoxychlor
[11]
  insecticidal activity relative to ethoxychlor: at least generally comparable to ethoxychlor

## CCOc1ccc(C(c2ccc(C)cc2)C(C)C)cc1 (stereo not shown) [XIV]
[5]
  LD50: 70 mg/kg
  Musca domestica NAIDM (w/PB) LD50: 18 µg/g
[6]
  LD50: 150 mg/kg
  Musca domestica Rsp strain w/PB LD50: 31 µg/g
Culex fatigans larvae
  LC50: 0.052 µg/mL (≈ 0.194 µM)
Culex fatigans adults
  Culex fatigans adults-LC50: 5.0 ug/cm^2
[7]
  LC50: 0.275 µg/mL (≈ 1.02 µM)
[8]
  Anopheles albimanus adults LC50: 5 ug/cm^2
Phormia regina
  LD50: 35 mg/kg
Anopheles albimanus
  Anopheles albimanus, P50 (number of weeks that at least 50% mortality occurred): 6 weeks
Culex fatigans
  Culex fatigans, P50 (number of weeks that at least 50% mortality occurred): 4 weeks
[9]
  Number of days 100% mortality: 0 days
Mouse toxicity, LD50
  LD50: ≥ 1000 mg/kg
Mice [10]
  safety to mice relative to ethoxychlor: at least five times safer to mice than is ethoxychlor
[11]
  insecticidal activity relative to ethoxychlor: at least generally comparable to ethoxychlor

## CCCOc1ccc(C(c2ccc(C)cc2)C(C)C)cc1 (stereo not shown) [XV]
[5]
  LD50: 175 mg/kg
  Musca domestica NAIDM (w/PB) LD50: 100 µg/g
[6]
  LD50: 370 mg/kg
  Musca domestica Rsp strain w/PB LD50: 220 µg/g
Culex fatigans larvae
  LC50: 0.55 µg/mL (≈ 1.95 µM)
Culex fatigans adults
  Culex fatigans adults-LC50: > 160 ug/cm^2
[7]
  LC50: 0.42 µg/mL (≈ 1.49 µM)
[8]
  Anopheles albimanus adults LC50: 29 ug/cm^2
Phormia regina
  LD50: 250 mg/kg

## CCOc1ccc(C(c2ccc(OCC)cc2)C(C)(C)Cl)cc1 [XXI]
[5]
  LD50: 115 mg/kg
  Musca domestica NAIDM (w/PB) LD50: 12 µg/g
[6]
  LD50: 180 mg/kg
  Musca domestica Rsp strain w/PB LD50: 25.5 µg/g
Culex fatigans larvae
  LC50: > 1 µg/mL
Culex fatigans adults
  Culex fatigans adults-LC50: > 160 ug/cm^2
[7]
  LC50: > 1 µg/mL
[8]
  Anopheles albimanus adults LC50: > 160 ug/cm^2
Phormia regina
  LD50: > 250 mg/kg
[9]
  Number of days 100% mortality: 0 days
Mouse toxicity, LD50
  LD50: ≥ 1000 mg/kg
Mice [10]
  safety to mice relative to ethoxychlor: at least five times safer to mice than is ethoxychlor
[11]
  insecticidal activity relative to ethoxychlor: at least generally comparable to ethoxychlor

## COc1ccc(C(c2ccc(OC)cc2)C(C)(C)Cl)cc1 [XX]
[5]
  LD50: > 500 mg/kg
  Musca domestica NAIDM (w/PB) LD50: 12 µg/g
[6]
  LD50: > 500 mg/kg
  Musca domestica Rsp strain w/PB LD50: 26 µg/g
Culex fatigans larvae
  LC50: > 1 µg/mL
Culex fatigans adults
  Culex fatigans adults-LC50: > 160 ug/cm^2
[7]
  LC50: > 1 µg/mL
[8]
  Anopheles albimanus adults LC50: 16 ug/cm^2
Phormia regina
  LD50: 75 mg/kg

## CCOc1ccc(C(c2ccc(OCC)cc2)C(Cl)(Cl)Cl)cc1 [ethoxychlor, reference compound]
Anopheles albimanus
  Anopheles albimanus, P50 (number of weeks that at least 50% mortality occurred): > 44 weeks
Culex fatigans
  Culex fatigans, P50 (number of weeks that at least 50% mortality occurred): 8 weeks
[9]
  Number of days 100% mortality: 21 days
